# Data as given in ChEMBL document CHEMBL1138279, “Platelet-activating factor (PAF) receptor binding antagonists from Alpinia officinarum” (Bioorg Med Chem Lett, 2007).
# Test: Displacement of [3H]PAF from rabbit PAF receptor
# Design: species or system Oryctolagus cuniculus
row,SMILES,IC50 [nM]
1,O=C(/C=C/CCc1ccccc1)CCc1ccccc1,5000
2,COC(CCc1ccccc1)CC(=O)CCc1ccccc1 (stereo not drawn),1600
3,O=C(/C=C/C(O)Cc1ccccc1)CCc1ccccc1 (stereo not drawn),1300
